# The source made the active and inactive calls. The rule behind the calls is not given here.
# Legend:
# [1] = target: T1, Replicase polyprotein 1ab (Severe acute respiratory syndrome coronavirus 2, UniProt P0DTD1); experiment: Inhibition of recombinant SARS-CoV-2 main protease expressed in Escherichia coli BL21 using Dabcyl-EDANS and Boc-Abu-Tle-Leu-Gln-AMC as substrate
# SARS-CoV-2 = experiment: Antiviral activity against SARS-CoV-2 NRC-03-nhCoV infected in african green monkey Vero E6 cells assessed as inhibition of virus-induced cytopathic effect measured after 72 hrs by crystal violet staining based assay; type: functional, organism-based; conditions: Severe acute respiratory syndrome coronavirus 2, NRC-03-nhCoV, Vero C1008, 72 h
# [2] = Cytotoxicity against African green monkey Vero E6 cells measured after 72 hrs by MTT assay; type: toxicity, cell-based, Vero C1008; conditions: chlorocebus sabaeus
# [3] = Selectivity index, ratio of CC50 for african green monkey Vero E6 cells to IC50 for antiviral activity against SARS-CoV-2 NRC-03-nhCoV infected in african green monkey Vero E6 cells; type: toxicity, Vero C1008; conditions: read-out: Ratio CC50/IC50
# [4] = target: T1, Replicase polyprotein 1ab; experiment: Inhibition of MBP tagged recombinant SARS-CoV-2 main protease using DABCYL-KTSAVLeu(13C6,15N)-Q as substrate incubated for 2 to 3 hrs by mass spectrometric analysis
# [5] = target: T1, Replicase polyprotein 1ab; experiment: Inhibition of SARS-CoV-2 RdRP using ATP substrate preincubated with compound for 30 mins followed by substrate addition and measured after 30 mins by Alphascreen microplate reader analysis
# UO-31 = experiment: Growth inhibition of human UO-31 cells incubated for 48 hrs by SRB assay relative to control; type: functional
# CCRF-CEM = experiment: Cytotoxicity against human CCRF-CEM cells assessed as inhibition of cell growth incubated for 48 hrs by SRB assay; type: functional, cell-based
# HL-60(TB) = experiment: Cytotoxicity against human HL-60(TB) cells assessed as inhibition of cell growth incubated for 48 hrs by SRB assay; type: functional, cell-based
# K562 = experiment: Cytotoxicity against human K562 cells assessed as inhibition of cell growth incubated for 48 hrs by SRB assay; type: functional, cell-based
# MOLT-4 = experiment: Cytotoxicity against human MOLT-4 cells assessed as inhibition of cell growth incubated for 48 hrs by SRB assay; type: functional, cell-based
# RPMI-8226 = experiment: Cytotoxicity against human […] cells assessed as inhibition of cell growth incubated for 48 hrs by SRB assay; type: functional, cell-based
# SR = experiment: Cytotoxicity against human SR cells assessed as inhibition of cell growth incubated for 48 hrs by SRB assay; type: functional, cell-based
# A549 = experiment: Cytotoxicity against human A549 cells assessed as inhibition of cell growth incubated for 48 hrs by SRB assay; type: functional, cell-based
# EKVX = experiment: Cytotoxicity against human EKVX cells assessed as inhibition of cell growth incubated for 48 hrs by SRB assay; type: functional, cell-based
# HOP-92 = experiment: Cytotoxicity against human HOP-92 cells assessed as inhibition of cell growth incubated for 48 hrs by SRB assay; type: functional, cell-based
# NCI-H226 = experiment: Cytotoxicity against human NCI-H226 cells assessed as inhibition of cell growth incubated for 48 hrs by SRB assay; type: functional, cell-based
# NCI-H23 = experiment: Cytotoxicity against human NCI-H23 cells assessed as inhibition of cell growth incubated for 48 hrs by SRB assay; type: functional, cell-based
# NCI-H322M = experiment: Cytotoxicity against human NCI-H322M cells assessed as inhibition of cell growth incubated for 48 hrs by SRB assay; type: functional, cell-based
# NCI-H460 = experiment: Cytotoxicity against human NCI-H460 cells assessed as inhibition of cell growth incubated for 48 hrs by SRB assay; type: functional, cell-based
# NCI-H522 = experiment: Cytotoxicity against human NCI-H522 cells assessed as inhibition of cell growth incubated for 48 hrs by SRB assay; type: functional, cell-based
# COLO 205 = experiment: Cytotoxicity against human COLO 205 cells assessed as inhibition of cell growth incubated for 48 hrs by SRB assay; type: functional, cell-based
# HCC 2998 = experiment: Cytotoxicity against human HCC 2998 cells assessed as inhibition of cell growth incubated for 48 hrs by SRB assay; type: functional, cell-based
# HCT-116 = experiment: Cytotoxicity against human HCT-116 cells assessed as inhibition of cell growth incubated for 48 hrs by SRB assay; type: functional, cell-based
# HCT-15 = experiment: Cytotoxicity against human HCT-15 cells assessed as inhibition of cell growth incubated for 48 hrs by SRB assay; type: functional, cell-based
# HT-29 = experiment: Cytotoxicity against human HT-29 cells assessed as inhibition of cell growth incubated for 48 hrs by SRB assay; type: functional, cell-based
# KM12 = experiment: Cytotoxicity against human KM12 cells assessed as inhibition of cell growth incubated for 48 hrs by SRB assay; type: functional, cell-based
# SW-620 = experiment: Cytotoxicity against human SW620 cells assessed as inhibition of cell growth incubated for 48 hrs by SRB assay; type: functional, cell-based
# SF-268 = experiment: Cytotoxicity against human SF-268 cells assessed as inhibition of cell growth incubated for 48 hrs by SRB assay; type: functional, cell-based
# SF-295 = experiment: Cytotoxicity against human SF-295 cells assessed as inhibition of cell growth incubated for 48 hrs by SRB assay; type: functional, cell-based
# SF-539 = experiment: Cytotoxicity against human SF-539 cells assessed as inhibition of cell growth incubated for 48 hrs by SRB assay; type: functional, cell-based
# SNB-19 = experiment: Cytotoxicity against human SNB-19 cells assessed as inhibition of cell growth incubated for 48 hrs by SRB assay; type: functional, cell-based
# SNB-75 = experiment: Cytotoxicity against human SNB-75 cells assessed as inhibition of cell growth incubated for 48 hrs by SRB assay; type: functional, cell-based
# U-251 = experiment: Cytotoxicity against human U-251 cells assessed as inhibition of cell growth incubated for 48 hrs by SRB assay; type: functional, cell-based
# LOX IMVI = experiment: Cytotoxicity against human LOX IMVI cells assessed as inhibition of cell growth incubated for 48 hrs by SRB assay; type: functional, cell-based
# Malme-3M = experiment: Cytotoxicity against human Malme-3M cells assessed as inhibition of cell growth incubated for 48 hrs by SRB assay; type: functional, cell-based
# M14 = experiment: Cytotoxicity against human M14 cells assessed as inhibition of cell growth incubated for 48 hrs by SRB assay; type: functional, cell-based
# MDA-MB-435 = experiment: Cytotoxicity against human MDA-MB-435 cells assessed as inhibition of cell growth incubated for 48 hrs by SRB assay; type: functional, cell-based
# SK-MEL-2 = experiment: Cytotoxicity against human SK-MEL-2 cells assessed as inhibition of cell growth incubated for 48 hrs by SRB assay; type: functional, cell-based
# SK-MEL-28 = experiment: Cytotoxicity against human SK-MEL-28 cells assessed as inhibition of cell growth incubated for 48 hrs by SRB assay; type: functional, cell-based
# SK-MEL-5 = experiment: Cytotoxicity against human SK-MEL-5 cells assessed as inhibition of cell growth incubated for 48 hrs by SRB assay; type: functional, cell-based
# UACC-257 = experiment: Cytotoxicity against human UACC-257 cells assessed as inhibition of cell growth incubated for 48 hrs by SRB assay; type: functional, cell-based
# IGROV-1 = experiment: Cytotoxicity against human IGROV-1 cells assessed as inhibition of cell growth incubated for 48 hrs by SRB assay; type: functional, cell-based
# OVCAR-3 = experiment: Cytotoxicity against human OVCAR-3 cells assessed as inhibition of cell growth incubated for 48 hrs by SRB assay; type: functional, cell-based
# OVCAR-4 = experiment: Cytotoxicity against human OVCAR-4 cells assessed as inhibition of cell growth incubated for 48 hrs by SRB assay; type: functional, cell-based
# OVCAR-5 = experiment: Cytotoxicity against human OVCAR-5 cells assessed as inhibition of cell growth incubated for 48 hrs by SRB assay; type: functional, cell-based
# OVCAR-8 = experiment: Cytotoxicity against human OVCAR-8 cells assessed as inhibition of cell growth incubated for 48 hrs by SRB assay; type: functional, cell-based
# NCI/ADR-RES = experiment: Cytotoxicity against human NCI/ADR-RES cells assessed as inhibition of cell growth incubated for 48 hrs by SRB assay; type: functional, cell-based
# SK-OV-3 = experiment: Cytotoxicity against human SK-OV-3 cells assessed as inhibition of cell growth incubated for 48 hrs by SRB assay; type: functional, cell-based
# 786-0 = experiment: Cytotoxicity against human 786-0 cells assessed as inhibition of cell growth incubated for 48 hrs by SRB assay; type: functional, cell-based
# A498 = experiment: Cytotoxicity against human A498 cells assessed as inhibition of cell growth incubated for 48 hrs by SRB assay; type: functional, cell-based
# ACHN = experiment: Cytotoxicity against human ACHN cells assessed as inhibition of cell growth incubated for 48 hrs by SRB assay; type: functional, cell-based
# CAKI-1 = experiment: Cytotoxicity against human CAKI-1 cells assessed as inhibition of cell growth incubated for 48 hrs by SRB assay; type: functional, cell-based
# RXF 393 = experiment: Cytotoxicity against human RXF 393 cells assessed as inhibition of cell growth incubated for 48 hrs by SRB assay; type: functional, cell-based
# SN12C = experiment: Cytotoxicity against human SN12C cells assessed as inhibition of cell growth incubated for 48 hrs by SRB assay; type: functional, cell-based
# TK-10 = experiment: Cytotoxicity against human TK-10 cells assessed as inhibition of cell growth incubated for 48 hrs by SRB assay; type: functional, cell-based
# PC-3 = experiment: Cytotoxicity against human PC-3 cells assessed as inhibition of cell growth incubated for 48 hrs by SRB assay; type: functional, cell-based
# DU-145 = experiment: Cytotoxicity against human DU-145 cells assessed as inhibition of cell growth incubated for 48 hrs by SRB assay; type: functional, cell-based
# MCF7 = experiment: Cytotoxicity against human MCF7 cells assessed as inhibition of cell growth incubated for 48 hrs by SRB assay; type: functional, cell-based
# MDA-MB-231 = experiment: Cytotoxicity against human MDA-MB-231 cells assessed as inhibition of cell growth incubated for 48 hrs by SRB assay; type: functional, cell-based
# Hs578Bst = experiment: Cytotoxicity against human Hs578Bst cells assessed as inhibition of cell growth incubated for 48 hrs by SRB assay; type: functional, cell-based
# BT-549 = experiment: Cytotoxicity against human BT-549 cells assessed as inhibition of cell growth incubated for 48 hrs by SRB assay; type: functional, cell-based
# T47D = experiment: Cytotoxicity against human T47D cells assessed as inhibition of cell growth incubated for 48 hrs by SRB assay; type: functional, cell-based
# MDA-MB-468 = experiment: Cytotoxicity against human MDA-MB-468 cells assessed as inhibition of cell growth incubated for 48 hrs by SRB assay; type: functional, cell-based
# HOP-62 = experiment: Cytotoxicity against human HOP-62 cells assessed as inhibition of cell growth incubated for 48 hrs by SRB assay; type: functional, cell-based
structure (smiles),measurement,setting,value
Cn1c(=O)c2c(nc3n(CC#Cc4ccc(Cl)c(Cl)c4)ccn23)n(C)c1=O,IC50,[1],4.7 µM
Cn1cnc2c1c(=O)n(CC(=O)Nc1ccc(S(=O)(=O)Nc3ncccn3)cc1)c(=O)n2C,IC50,SARS-CoV-2,8.86 µM
same,CC50 at 72 h,[2],1140 µM
same,selectivity ratio,[3],129
same,IC50,[4],8.06 µM
same,IC50,[5],3.22 µM
same,growth inhibition (GI),UO-31,17.55%
same,Activity,CCRF-CEM,inactive
same,Activity,HL-60(TB),inactive
same,Activity,K562,inactive
same,Activity,MOLT-4,inactive
same,Activity,RPMI-8226,inactive
same,Activity,SR,inactive
same,Activity,A549,inactive
same,Activity,EKVX,inactive
same,Activity,HOP-92,inactive
same,Activity,NCI-H226,inactive
same,Activity,NCI-H23,inactive
same,Activity,NCI-H322M,inactive
same,Activity,NCI-H460,inactive
same,Activity,NCI-H522,inactive
same,Activity,COLO 205,inactive
same,Activity,HCC 2998,inactive
same,Activity,HCT-116,inactive
same,Activity,HCT-15,inactive
same,Activity,HT-29,inactive
same,Activity,KM12,inactive
same,Activity,SW-620,inactive
same,Activity,SF-268,inactive
same,Activity,SF-295,inactive
same,Activity,SF-539,inactive
same,Activity,SNB-19,inactive
same,Activity,SNB-75,inactive
same,Activity,U-251,inactive
same,Activity,LOX IMVI,inactive
same,Activity,Malme-3M,inactive
same,Activity,M14,inactive
same,Activity,MDA-MB-435,inactive
same,Activity,SK-MEL-2,inactive
same,Activity,SK-MEL-28,inactive
same,Activity,SK-MEL-5,inactive
same,Activity,UACC-257,inactive
same,Activity,IGROV-1,inactive
same,Activity,OVCAR-3,inactive
same,Activity,OVCAR-4,inactive
same,Activity,OVCAR-5,inactive
same,Activity,OVCAR-8,inactive
same,Activity,NCI/ADR-RES,inactive
same,Activity,SK-OV-3,inactive
same,Activity,786-0,inactive
same,Activity,A498,inactive
same,Activity,ACHN,inactive
same,Activity,CAKI-1,inactive
same,Activity,RXF 393,inactive
same,Activity,SN12C,inactive
same,Activity,TK-10,inactive
same,Activity,PC-3,inactive
same,Activity,DU-145,inactive
same,Activity,MCF7,inactive
same,Activity,MDA-MB-231,inactive
same,Activity,Hs578Bst,inactive
same,Activity,BT-549,inactive
same,Activity,T47D,inactive
same,Activity,MDA-MB-468,inactive
same,Activity,HOP-62,inactive
Cn1c(=O)c2c(nc3n2CC=C(O)N3c2ccc(S(N)(=O)=O)cc2)n(C)c1=O,IC50,SARS-CoV-2,16 µM
same,CC50 at 72 h,[2],2040 µM
same,selectivity ratio,[3],127
